In patent US3974277A, “2-[2-(5-Nitro-2-furyl)vinyl]-4-(anilino)quinazolines as growth promotants and feed efficiency enhancing agents” (Diamond Shamrock Corporation, priority 1975, dated 1976):
Positions of bridges follow the written chain, without caps; N, C: chain ends. Non-standard residues stand in square brackets, D forms with d. Residues, ends and D or L forms follow the SMILES beside them. *: point of attachment. Ileψ(thiazoline)Cys = CC[C@H](C)[C@H](N)C1=N[C@H](C(=O)*)CS1; dOrn = NCCC[C@@H](N)C(=O)O

What was measured:
Streptococcus faecalis = experiment: Bactericide test, agar growth inhibition; format: cell-based; conditions: vs chlortetracycline
Description: (§1) Test formulations were examined for bactericidal and/or bacteriostatic activity against the test organisms shown in Tables A and B. These organisms were chosen as being representative of commercially important pathogens affecting animal agriculture. The antibiotic chlortetracycline was chosen as a positive control, since it has a broad spectrum of activity against a large number of organisms, and its activity can be used for comparative purposes.
(§2) Basic test formulations of the product of Examples I, II, III, and of chlortetracycline were prepared by dissolving 16 mg (0.016 g) in 2.0 ml of stock emulsifier solution (0.25% Triton X-155 in acetone by volume) and making each solution up to 50 ml with deionized water. The concentration of the test compound in the basic formuation was 320 ppm. Lower concentrations of the test compound were obtained by diluting the basic formulation with a 4% solution of the stock emulsifier in deionized water so that each dilution in the series differed only in test compound content.
Nutrient-tryptic soy agar (NTA) consisting of 2.0% Difco Bactoagar 0.8% nutrient broth (Difco), and 0.5% tryptic soy broth (Difco) was prepared and sterilized by autoclaving. A 2 ml aliquot of each test formulation was added to 8 ml of molten NTA. This mixture was then plated in a sterile polystyrene petri dish (100 × 15 mm). After the agar was set, suspensions of each of the test organisms were simultaneously streaked into the surface of the agar. The inoculated plates were incubated for 48 hr at 28°C. The inhibition of growth of each organism was rated by visual comparison with the organism developing on non-treated agar. Growth inhibition reported as per cent control was rated in three categories as follows: 0% control, growth equivalent to that on non-treated agar; 50% control, sparse development and separated colonies; 100% control, no visible growth or development of colonies. […]

[1] = test system: Bordetella bronchiseptica; experiment: Bactericide test, agar growth inhibition; format: cell-based; conditions: vs chlortetracycline
Description: as §1, §2
(§3) Nutrient-tryptic soy agar (NTA) consisting of 2.0% Difco Bactoagar 0.8% nutrient broth (Difco), and 0.5% tryptic soy broth (Difco) was prepared and sterilized by autoclaving. A 2 ml aliquot of each test formulation was added to 8 ml of molten NTA. This mixture was then plated in a sterile polystyrene petri dish (100 × 15 mm). After the agar was set, suspensions of each of the test organisms were simultaneously streaked into the surface of the agar. The inoculated plates were incubated for 48 hr at 28°C. The inhibition of growth of each organism was rated by visual comparison with the organism developing on non-treated agar. Growth inhibition reported as per cent control was rated in three categories as follows: 0% control, growth equivalent to that on non-treated agar; 50% control, sparse development and separated colonies; 100% control, no visible growth or development of colonies.

[2] = test system: Erysipelothrix rhusiopathiae; experiment: Bactericide test, agar growth inhibition; format: cell-based; conditions: vs chlortetracycline
Description: as §1, §2, §3

Streptococcus agalactiae = experiment: Bactericide test, agar growth inhibition; format: cell-based; conditions: vs chlortetracycline
Description: as §1, §2, §3

Streptococcus group E = experiment: Bactericide test, agar growth inhibition; format: cell-based; conditions: vs chlortetracycline
Description: as §1, §2, §3

Vibrio coli = experiment: Bactericide test, agar growth inhibition; format: cell-based; conditions: vs chlortetracycline
Description: as §1, §2, §3

[3] = Chick growth promotion, Example XII first test (Table VI); format: in vivo, broiler cross chicks; conditions: first set of tests, 25 g/T
Description: (§4) The growth promotion tests described in Example X were repeated with the additional testing the products of Examples II and III.

[4] = Chick growth promotion and feed efficiency at low levels, Example VIII (Table II); format: in vivo, broiler cross chicks
Description: Day old broiler cross chicks were weight equalized into groups of 8 chicks each and were placed in battery brooders. The 32 chick treatment groups (4 replicates) were fed one of the five rations described below for a 4 week period. Weekly measurements of body weights and feed consumption were made by replicate, and these measurements used to calculate weight gain and feed efficiency.
The basal ration was the basal ration used in Example VII above. The remaining five rations were obtained by mixing the indicated quantities by bacitracin (4 g/T), chlortetracycline (10 g/T), product of Example I (10 g/T), and product of Example III of U.S. Pat. No. 3,542,784 -- Burch (10 g/T) as growth promotants with the basal ration.

[5] = Chick growth promotion comparison, Example XI (Table V); format: in vivo, broiler cross chicks; conditions: 25 g/T, 4 weeks
Description: The growth promotion tests described in Example X were repeated with the exception that five replicates of 8 chicks each were fed the formulations described in Table V for 4 weeks.

[6] = Chick growth promotion, Example XII repeat test (Table VII); format: in vivo, broiler cross chicks; conditions: second set of tests, 25 g/T
Description: as §4

[7] = Chick growth promotion comparison, Example X (Table IV); format: in vivo, broiler cross chicks; conditions: 25 g/T
Description: This example compares growth promotion activity of the product of Example I with other growth promotants at a concentration of 25 g/T in the Basal Ration described in Example VII. The other growth promotants include the product described in Example I of U.S. Pat. No. 3,542,784 -- Burch and quinoxaline-1,4-dioxide. Day old broiler cross chicks were weight equalized into groups of 8 chicks each, and four replicates of 8 chicks each were fed the experimental rations over a 4 week period.

[8] = Chick growth promotion titration dosage, Example IX (Table III); format: in vivo, broiler cross chicks
Description: The concentrations used in this test were 6.25, 12.5, 25, 50, 100, 200 and 400 g of the Product of Example I per ton of the Basal Ration described in Example VII above. The same number and size chick treatment groups were used in this test as in Example VIII above.

[9] = Swine growth rate and feed efficiency, Example XIII (Table VIII); format: in vivo, weanling pigs; conditions: 25 g/T
Description: Thirty-six weanling pigs weighing approximately 30 pounds each in good physical condition and originating from a common source were used in these tests. The pigs were allocated into sex and weight equalized pens of six pigs each. A 1 week period was allowed for acclimatization before testing. Three replicates of six pigs were fed the basal ration described below, and three replicates were fed the same basal ration supplemented with 25 g/T of the product of Example I.
The basal ration was a 17% commercial corn-soya pelletized formulation which was free of antibiotic and drug components. Composition of the basal ration formulation was: […]
The rations were offered ad libitum from 6 bushel self-feeders with a continuous supply of fresh water. The same ration formulations were used throughout the 6 week feeding period. Individual pig weighing were made after 0, 2, 4 and 6 (termination) week periods. Feed consumption records were kept on a pen basis, with feed efficiency conversion being compiled at the end of the 2nd, 4th and 6th (termination) week of feeding. Complete morbidity and mortality records were kept.

Row | Compound | effectiveness compared with chlortetracycline (Streptococcus faecalis) | effectiveness compared with chlortetracycline [1] | effectiveness compared with chlortetracycline [2] | effectiveness compared with chlortetracycline (Streptococcus agalactiae) | effectiveness compared with chlortetracycline (Streptococcus group E) | effectiveness compared with chlortetracycline (Vibrio coli) | effect on growth rate and feed efficiency (in words) [3] | effect on growth rate and feed efficiency (in words) [6] | also measured
1 | O=[N+]([O-])c1ccc(C=Cc2nc(Nc3cccc(O)c3)c3ccccc3n2)o1 [Example II, 2-[2-(5-nitro-2-furyl)vinyl]-4-(m-hydroxyanilino)quinazoline] | considerably more effective | considerably more effective | considerably more effective | considerably more effective | considerably more effective | considerably more effective | moderate improvements |  | 
2 | CC[C@H](C)[C@H](N)C1=N[C@H](C(=O)N[C@@H](CC(C)C)C(=O)N[C@H](CCC(=O)O)C(=O)N[C@H](C(=O)N[C@H]2CCCCNC(=O)[C@H](CC(N)=O)NC(=O)[C@@H](CC(=O)O)NC(=O)[C@H](Cc3cnc[nH]3)NC(=O)[C@@H](Cc3ccccc3)NC(=O)[C@H]([C@@H](C)CC)NC(=O)[C@@H](CCCN)NC2=O)[C@@H](C)CC)CS1 [Bacitracin] ({Ileψ(thiazoline)Cys}-L[dE]IK[dOrn]I[dF]H[dD]N; lactam 4-C) |  |  |  |  |  |  |  |  | Improved Response Over Basal Ration, Feed Efficiency ([4]; 4 g/T, 4 weeks): +1.2%; Improved Response Over Basal Ration, Gain ([4]; 4 g/T, 4 weeks): -2.3%; Improved Response Over Basal Ration, Feed Efficiency [5]: +3.1%; Improved Response Over Basal Ration, Gain [5]: +1.2%
3 | O=[N+]([O-])c1ccc(-c2nc(Nc3ccc(O)cc3)c3ccccc3n2)o1 [Example III of U.S. 3,542,784 - Burch, 2-(5-nitro-2-furyl)-4-(p-hydroxyanilino)quinazoline, reference compound] |  |  |  |  |  |  | essentially no effect on growth rate or feed efficiency in either test | essentially no effect on growth rate or feed efficiency in either test | 
4 | O=[N+]([O-])c1ccc(C=Cc2nc(Nc3ccccc3)c3ccccc3n2)o1 [Example IV, 2-[2-(5-nitro-2-furyl)vinyl]-4-anilinoquinazoline] | considerably more effective | considerably more effective | considerably more effective | considerably more effective | considerably more effective | considerably more effective |  |  | 
5 | [O-][n+]1cc[n+]([O-])c2ccccc21 [Quinoxaline-1,4-dioxide, quinoxaline-1,4-dioxide] |  |  |  |  |  |  |  |  | response in growth rate and feed efficiency (in words) [7]: did not have any apparent effect
6 | O=[N+]([O-])c1ccc(C=Cc2nc(Nc3ccc(O)cc3)c3ccccc3n2)o1 [Example I, 2-[2-(5-nitro-2-furyl)vinyl]-4-(p-hydroxyanilino)quinazoline] | considerably more effective | considerably more effective | considerably more effective | considerably more effective | considerably more effective | considerably more effective | moderate improvements in production parameters in both tests | moderate improvements in production parameters in both tests | growth promotion (in words) ([4]; low levels in feed): greater growth promotion than any of the other growth promotants; weight gain (in words) ([8]; 100 g/T): unexplained absence of weight gain improvement; activity (in words) ([8]; 400 g/T): sharp downturn; growth and feed efficiency (in words) [9]: very substantial growth improvement and enhanced feed efficiency
